Reference: PubChem BioAssay AID858 (Vanderbilt High Throughput Screening Facility, 2007)
Calls of active or inactive are those of the source.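 How the source made its calls: active means at least two of three replicate dose series yielding a converging curve fit, whether well or thinly supported; inactive means the rest.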

Target: D(1A) dopamine receptor (Homo sapiens) (UniProt P21728)
Test: D1 receptor modulation with EC30 dopamine, dose response, D1 allosteric modulator project, cell-based, CRE-luciferase, HEK293 (AID 858);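 further: HEK 293 cells bearing human D1 receptor stimulated by dopamine at its EC30; luciferase light from a cAMP response element reporter gene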

Sequence of D(1A) dopamine receptor (Homo sapiens) (P21728 whole entry, looked up): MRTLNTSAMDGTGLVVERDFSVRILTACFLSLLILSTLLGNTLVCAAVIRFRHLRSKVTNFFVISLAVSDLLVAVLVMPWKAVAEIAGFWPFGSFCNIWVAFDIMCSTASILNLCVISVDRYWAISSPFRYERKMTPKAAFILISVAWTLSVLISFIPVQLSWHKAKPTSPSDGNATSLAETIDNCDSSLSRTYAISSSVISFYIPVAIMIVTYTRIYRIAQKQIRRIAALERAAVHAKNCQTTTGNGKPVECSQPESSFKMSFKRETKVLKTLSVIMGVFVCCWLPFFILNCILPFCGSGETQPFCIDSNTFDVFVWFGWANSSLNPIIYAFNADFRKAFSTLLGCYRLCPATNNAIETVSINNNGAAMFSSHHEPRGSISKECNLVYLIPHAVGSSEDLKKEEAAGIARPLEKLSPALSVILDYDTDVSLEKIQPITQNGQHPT

## COc1ccccc1-c1nnc2n1N=C(C(C)(C)C)CS2
  outcome: inactive

## COc1ccc(-c2noc(COc3ccc4ccccc4c3Br)n2)cc1OC
  outcome: inactive

## C=CCn1c(SCc2nc3c(c(=O)[nH]c(=O)n3CCCC)n2CCC)nnc1-c1ccccc1
  outcome: inactive

## CCOCCOC(=O)C1=C(C)Nc2ccc(C)cc2S1
  outcome: inactive

## COc1ccc(-c2noc(CCN3C(=O)c4ccccc4C3=O)n2)cc1OC
  EC50: 0.309 µM

## CCOC(=O)Cc1[nH]nc2c1C(c1cccc(OC)c1OC)C(C#N)=C(N)O2 (stereo not drawn)
  outcome: inactive

## CCOC(=O)C(O)(CCC(O)(C(=O)OCC)C(=O)OCC)C(=O)OCC
  outcome: inactive

## Cc1cc(O)c(C=Nc2cccc(Cl)c2)c(=O)o1
  outcome: inactive

## c1ccc(Cn2nnc3c(N4CCc5ccccc54)ncnc32)cc1
  outcome: inactive

## c1ccc(C2=Nn3c(nnc3-c3ccncc3)SC2)cc1
  outcome: inactive

## CC1=CC(C)(C)N=C(NC#N)N1
  outcome: inactive

## Clc1ccccc1Cn1nnc2c(N3CCCC3)ncnc21
  outcome: inactive

## COc1ccc(-c2cc(=O)oc3c(C)c(O)c(CN(C)C)cc23)cc1
  outcome: inactive

## CNc1nc(C)c(C(=O)OCC(=O)OC)s1
  outcome: inactive

## Cn1cnc2c1c(=O)n(Cc1ccc(F)cc1Cl)c(=O)n2C
  outcome: inactive

## COC(=O)c1ccc(COc2nc(C)cc(C)c2C#N)o1
  outcome: inactive

## Cc1ccc(-c2nc3ncccn3c2NC(=O)C2CC2)cc1
  outcome: inactive

## CCOC(=O)c1[nH]c2ccccc2c1NC(=O)C(C)(C)C
  outcome: inactive

## Cn1nnnc1SCC(=O)Nc1nc(-c2ccccc2)c(-c2ccccc2)o1
  outcome: inactive

## COc1cccc(-c2nnc(SCC(=O)Nc3cc(C)on3)o2)c1
  outcome: inactive

## Cn1cccc1C1NC(=O)c2c(sc3c2CCC(C(C)(C)C)C3)N1 (stereo not drawn)
  outcome: inactive

## COCCCNc1c2c3c(cccc3[nH]c1=O)C(=O)c1ccccc1-2
  outcome: inactive

## COc1ccc(-c2coc3cc(O)cc(O)c3c2=O)cc1
  outcome: inactive

## CCCn1c(SCC(=O)Nc2sc(C)c(C)c2C(=O)OCC)nc2c1c(=O)n(C)c(=O)n2C
  outcome: inactive

## COC(=O)c1sc2ccccc2c1C(=O)OC
  outcome: inactive

## CCOC(=O)c1c(C)c(C(=O)NCc2ccc3c(c2)OCO3)c(C)n1C
  outcome: inactive

## COCCNC(=O)c1c(NC(=O)c2ccco2)n(Cc2ccccc2)c2nc3ccccc3nc12
  outcome: inactive

## CCOC(=O)N1CCN(C(=O)CCCn2c(=S)[nH]c3ccccc3c2=O)CC1
  outcome: inactive

## COc1cccc(-c2nn3c(-c4cc(C)[nH]n4)nnc3s2)c1
  outcome: inactive

## Fc1ccc(-c2cc(C(F)(F)F)nc(-n3cncn3)n2)cc1
  outcome: inactive

## CCCn1c2c(c(O)c(C(=O)NC)c1=O)CCCC2
  outcome: inactive

## COc1ccc(N2C(=O)C3CCCN3C2c2ccccc2)cc1Cl (stereo not drawn)
  outcome: inactive

## CCOC(=O)c1c(-c2ccncc2)csc1N
  outcome: inactive

## O=c1nc2scc(-c3ccccc3)n2c2ccccc12
  outcome: inactive

## CCCSc1nsc(SCCC)c1C(N)=O
  outcome: inactive

## Cn1c(=O)c2c(-c3ccc(C(C)(C)C)cc3)n(N3CCOCC3)cc2n(C)c1=O
  outcome: inactive

## N#CC1=C(N)n2c(s/c(=C\c3ccco3)c2=O)=C(C#N)C1c1ccco1 (stereo not drawn)
  outcome: inactive

## Fc1cc(Br)ccc1Nc1nc2ccccc2n2nnnc12
  outcome: inactive

## Clc1ccc(-n2nnnc2-c2ccccc2)cc1
  outcome: inactive

## CCCCNC(=O)Nc1ccc(Br)cn1
  EC50: 2.43 µM

## CCOc1ccc(N/C(SC)=C(/C#N)C(N)=O)cc1
  outcome: inactive

## CCCOc1ccccc1NC(=O)c1ccc(N)cc1
  outcome: inactive

## CCOC(=O)CN(C(=O)CSc1nnc(-c2ccc(OC)c(OC)c2)o1)c1ccc(F)cc1
  outcome: inactive

## Cc1cc(C)n(CC(=O)n2c3c(c4ccccc42)CCCC3)n1
  outcome: inactive

## COC(=O)c1c(-c2ccc(F)cc2)csc1NC(=O)c1ccco1
  outcome: inactive

## CCc1nn(CCCC(=O)N2CCc3ccccc3C2)c(=O)c2cc3occc3n12
  outcome: inactive

## Cn1c2c(c3ccccc31)CC/C2=N\O
  outcome: inactive

## Nc1nc(SCC(=O)OCc2ccccc2)[nH]c(=O)c1NC(=O)c1ccco1
  outcome: inactive

## N#CCCN1CCN(S(=O)(=O)c2ccc(S(=O)(=O)NC3CCCCC3)cc2)CC1
  outcome: inactive

## Cc1cc(NS(=O)(=O)c2ccc(NC(=O)COc3ccccc3C(C)C)cc2)no1
  outcome: inactive

## CCOC(=O)CCSc1nc(C)c2ccccc2n1
  outcome: inactive

## Nc1nc2n(n1)C(c1ccco1)CC(c1ccc(F)cc1)N2 (stereo not drawn)
  outcome: inactive

## Cc1ccc(S(=O)(=O)N2CCN(C(=O)COC(=O)c3cc(C)oc3C)CC2)cc1
  outcome: inactive

## N#CCSc1nc2c(sc(=S)n2Cc2ccco2)c(=O)n1-c1ccc(F)cc1
  outcome: inactive

## Cc1nnc(SCCn2c(N3CCCC(C)C3)nc3c2c(=O)[nH]c(=O)n3C)s1 (stereo not drawn)
  outcome: inactive

## COc1ccc(CCNc2nnc(Sc3nnnn3-c3ccccc3)s2)cc1OC
  outcome: inactive

## Cc1ccc(-c2cc(-c3ccc(C)o3)nc(N)c2C#N)cc1
  outcome: inactive

## CC(C)n1c(C(O)c2ccccc2)nc2ccccc21 (stereo not drawn)
  outcome: inactive

## CCOC(=O)N1CCN(C(=O)C(C)(C)Oc2ccc(Cl)cc2)CC1
  outcome: inactive

## COc1ccc(S(=O)(=O)N2CCSC2c2ccc(OC)c(OC)c2)cc1 (stereo not drawn)
  outcome: inactive

## CC(C)Sc1nc2c(c(=O)n1C)SC(C)C2 (stereo not drawn)
  outcome: inactive

## Cc1cc(NC(=O)COc2nnc(-c3ccccc3)c3ccccc23)no1
  outcome: inactive

## CNc1nc(C)c(C#N)c(-c2ccccc2)c1C(C)=O
  EC50: 2.33 µM

## Cc1cccc(-c2c3c(=O)n(C)c(=O)n(C)c3cn2-c2ccccc2O)c1
  outcome: inactive

## Cc1ccc(Oc2ccccc2)c(NC=O)c1
  outcome: inactive

## CCOC(=O)C1CCCN(C(=O)c2cc(Cl)ccc2Cl)C1 (stereo not drawn)
  outcome: inactive

## Clc1ccccc1-c1nn2c(-c3ccncc3)nnc2s1
  outcome: inactive

## COc1ccc(CCNS(=O)(=O)c2ccc3c(c2)OCCO3)cc1OC
  outcome: inactive

## CCOC(=O)c1ccc(N2CN=C3SCC(=O)N3C2)cc1
  outcome: inactive

## c1ccc(COc2nsnc2N2CCOCC2)cc1
  outcome: inactive

## c1ccc(-c2nc3nonc3nc2-c2ccccc2)cc1
  outcome: inactive

## COc1ccccc1NC(=O)N(Cc1ccc2c(c1)OCO2)Cc1nc2ccccc2c(=O)[nH]1
  outcome: inactive

## COc1c(S(=O)(=O)n2nc(C)cc2C)ccc(Cl)c1Cl
  outcome: inactive

## COc1ccc(NC(=O)c2ccc(NS(=O)(=O)c3c(C)noc3C)cc2)cc1OC
  outcome: inactive

## Cc1cc(C)n2c3c(c(C#N)c2n1)CCCC3
  outcome: inactive

## COc1ccc2[nH]c(=O)c(CN(Cc3cccs3)Cc3nnnn3C(C)(C)C)cc2c1
  outcome: inactive

## CCOc1cc(C2CC(=O)NC(SCC)=C2C#N)ccc1O (stereo not drawn)
  outcome: inactive

## CCOC(=O)c1c(-c2ccsc2)csc1N
  outcome: inactive

## COc1ccc(-c2noc(-c3ccco3)n2)cc1OC
  outcome: inactive

## c1csc(-c2nn3c(Cn4nnc5ccccc54)nnc3s2)c1
  outcome: inactive

## CCCc1cc(=O)[nH]c(NCc2ccc(Cl)cc2)n1
  outcome: inactive

## CCCC(=O)Nc1ccc(NC(=O)C2CC2)cn1
  EC50: 0.0224 µM

## COCCNc1oc(-c2ccc(C)cc2)nc1C#N
  outcome: inactive

## O=c1cc(-c2ccccc2)c2c([nH]1)CCCC2
  outcome: inactive

## CCOc1ccccc1C1CC(c2ccccc2)Nc2nc(N)nn21 (stereo not drawn)
  outcome: inactive

## Cc1nc(-c2ccc(S(=O)(=O)N3CCCCCC3)cc2)cs1
  outcome: inactive

## C=CCc1c(C)nc(SC)nc1Nc1ccc(C(=O)O)cc1
  outcome: inactive

## Cc1ccccc1NC(=O)c1nc[nH]c1C(=O)NCc1ccccc1
  outcome: inactive

## CCc1ccc2[nH]c(=O)c(CN(Cc3nnnn3C3CCCC3)C3CCCCC3)cc2c1
  outcome: inactive

## N#Cc1cnn(Cc2ccccc2)c1/N=C/N1CCOCC1
  outcome: inactive

## Cc1cc(Br)c2c(c1)=C(c1sc(N3CCCCCC3)nc1O)C(=O)N=2
  EC50: 1.35 µM

## CCOc1ccc(CC(=O)Nc2c(C(N)=O)oc3ccccc23)cc1OCC
  outcome: inactive

## O=C(c1ccco1)N1CCN(c2nc(C3CC3)nc3sc4c(c23)CCCC4)CC1
  outcome: inactive

## CCC(=O)n1nc(-c2ccco2)nc1N
  outcome: inactive

## CCOC(=O)NCCc1ccc(OC)cc1
  outcome: inactive

## CC(=O)Nc1nc2n(n1)C(c1ccccc1)C=C(c1ccccc1)N2 (stereo not drawn)
  outcome: inactive

## CCn1c(SCC(=O)Nc2cc(C)on2)nc2c(c1=O)SC(C)C2 (stereo not drawn)
  outcome: inactive

## CC(C)C1N=C2c3ccccc3N=C(SCC#N)N2C1=O (stereo not drawn)
  EC50: 3.14 µM

## O=C(NCc1cccs1)C1CC(c2ccccc2O)=NO1 (stereo not drawn)
  outcome: inactive

## Nc1nonc1-n1nnc(C(=O)c2ccccc2)c1-c1ccccc1
  outcome: inactive

## CC(C)OC(=O)CSc1nnc(-c2cnccn2)n1-c1ccccc1
  outcome: inactive

## O=S1(=O)N=C(N2CCc3ccccc3C2)c2ccccc21
  outcome: inactive

## CCOC(=O)c1c(NC(=O)c2cccs2)sc(C)c1CC
  outcome: inactive

## Cc1cc2cc(CN(CCN3CCOCC3)C(=O)Nc3ccccc3F)c(=O)[nH]c2cc1C
  outcome: inactive

## CSc1nc2c(c(=O)n1-c1ccccc1)SCC2
  outcome: inactive

## COc1cc2c(cc1OC)C(C(=O)Nc1ccc3c(c1)OCCO3)C1c3ccccc3CCN1C2=O (stereo not drawn)
  outcome: inactive

## COc1ncnc2c1N[C@@](C)(O)c1c(F)c(F)c(F)c(F)c1S2
  outcome: inactive

## CC(=O)N=c1sc2nc3ccccc3nc2n1N(C(C)=O)C(C)=O
  outcome: inactive

## Nc1nc(SCc2ccc3c(c2)OCCO3)n[nH]1
  outcome: inactive

## COc1cc(OC)cc(C(=O)Nn2cc(C(=O)N3CCN(C)CC3)c3ccccc3c2=O)c1
  outcome: inactive

## CCC(C)Sc1nc2c(c(=O)n1C)SC(C)C2 (stereo not drawn)
  outcome: inactive

## O=C(OCCCCN1C(=O)c2ccccc2C1=O)c1n[nH]c2ccccc12
  outcome: inactive

## CC(=O)c1cc(C#N)c(SCc2ccncc2)nc1C
  outcome: inactive
